Where two headings read alike, the source gives them in different places.
Key:
[1] = test system: A/H3N2/Hong Kong/1/68 influenza virus; set-up: species or system C57BL/6J mice; details: mouse, in vivo
[2] = test system: A/PR/8/34(H1N1) influenza virus; set-up: species or system C57BL/6J mice; details: mouse, in vivo
[3] = test system: fetus and newborn mouse pups of timed-pregnant mice
[4] = test system: human inflammatory tissues or cancer tissues; experiment: Antibody binding to human diseased tissues (tissue array slides); details: respiratory, cardiovascular, urinary and digestive system
Text: (§1) Further, the Regn10987 antibody from COVID-19 infected patient and fetal tissues or multiple diseased tissues of tissue array slides (purchased from US Biomax) were used to evaluate the pathogenicity of the antibody specific to the SARS-CoV-2 S1 protein. […] In addition, the Regn10987 bound broadly to the human inflammatory tissues or cancer tissues of respiratory, cardiovesvular, urinary and digestive system (FIGS. 17A and 17B). The human inflammatory diseases tested include pneumonia, bronchitis, bronchiectasis, valvular disease, rheumatoid valvular disease, myocarditis, esophagitis, gastritis, collitis, appendicitis, pancreatitis, and hepatitis. The cancer tissues tested include small cell lung carcinoma, kidney clear cell carcinoma, and myxoma.

[5] = test system: human lung epithelium cell line A549; experiment: Antibody binding to healthy or damaged A549 cells; format: cell-based
human fetal tissues = experiment: Antibody binding to human fetal tissues (tissue array slides); details: lung, heart, kidney, brain, pancreas, liver, thymus and testicle
Text: as §1

[6] = for stability: compound alone, 5 mg/ml, 37° C., SGF pH 1.0, PBS pH 4.5, SIF pH 7.3, 0.5-6 hours
respiratory infection = experiment: Prevention of respiratory infections of weaning piglets; format: in vivo
Text: The sick rate was about 10% and the death rate was about 5%. […] Control feed comprised 500 grams of Tilmicosin per 1000 kg. The nursery feeds were given to 763 of weaning piglets and 750 of controls from day 15 of the weaning period.

CCOC(=O)C1=C[C@@H](OC(CC)CC)[C@H](NC(C)=O)[C@@H](N)C1 [Tamiflu]
therapeutic efficacy compared to vehicle controls [1]: did not show significant efficacy | body weight [2]: maintained better body weight | deaths (survival rate) [2]: significantly reduced the deaths | inflammation of lung and intestine (HE stained tissue sections) [2]: Severe inflammation | lung cytokine level of IL-1β [2]: remained abnormally higher | lung cytokine level of IL-6 [2]: remained abnormally higher | lung cytokine level of TNF-α [2]: remained abnormally higher | serum cytokine level of IL-6 [2]: significantly reduced | serum cytokine level of TNF-α [2]: significantly reduced | deaths (survival rate) ([2]; listed as Tamilu): did not show significant effect

MAb-Regn10987: naturally occurred human monoclonal antibody specific to the COVID-19 (SARS-CoV-2) S1 protein
histological changes of lungs of mouse pups (HE) ([3]; mouse, in vivo): Acute lung inflammation and injury | histology of the brains of mouse pups (HE) ([3]; mouse, in vivo): Large amount of inflammatory cells infiltration | Death (%) ([3]; mouse, in vivo, ip): 44.8% | Sick (%) ([3]; mouse, in vivo, ip): 17.1% | Sick + Death (%) ([3]; mouse, in vivo, ip): 61.9% | Odds Ratio ([3]; sick and death of mouse pups, vs saline): 21.3 | binding to human inflammatory tissues or cancer tissues [4]: bound broadly | binding to damaged A549 cells ([5]; A549 cells with missed sialic acid on the cell surface): strongly bound | binding to healthy A549 cells ([5]; healthy (intact) A549 cells): weakly bound | binding to human fetal tissues (human fetal tissues): bound

COC(=O)[C@]1(O)CC(O)[C@@H](NC(C)=O)C(C(O)[C@H](O)CO)O1 (some centres unmarked) [NANA-Me, N-acetylneuraminic acid methyl ester]
stability [6]: most stable at about pH 4.5 and least stable at about pH 7.3 | NANA-Me stability by ratio NANA:NANA-Me ([6]; pH 7.4): most stable at NANA:NANA-Me of 1:4 and least stable at NANA:NANA-Me of 1:1 | deaths (survival rate) ([2]; pH 1.5): ineffective | deaths (survival rate) ([2]; pH 3.5): ineffective | deaths (survival rate) ([2]; pH 4.5): significantly reduced deaths | deaths (survival rate) ([2]; pH 7): ineffective

CC(=O)N[C@H]1[C@H]([C@H](O)[C@H](O)CO)OC(O)(C(=O)O)C[C@@H]1O (some centres unmarked) [NANA, N-acetylneuraminic acid]
stability [6]: stable at all the pH conditions

CC[C@H]1OC(=O)C[C@@H](O)[C@H](C)[C@@H](O[C@@H]2O[C@H](C)[C@@H](O)[C@H](N(C)C)[C@H]2O)[C@@H](CCN2C[C@H](C)C[C@H](C)C2)C[C@@H](C)C(=O)/C=C/C(C)=C/[C@@H]1CO[C@@H]1O[C@H](C)[C@@H](O)[C@@H](OC)[C@H]1OC [Tilmicosin]
Odds Ratio (respiratory infection; death): 5.76 | Death (respiratory infection; number of piglets, nursery feed for 4 days from day 15 of weaning): 38

Source: patent US20240239829A1 (priority 2021, published 2024)
